pIC50: −log10 of the molar value.
Tested on: PANC-1 (human pancreatic cancer-derived cell line)
Assay: MTS assay on Panc-1 (human pancreas carcinoma cell line)
Format: cell-based
Conditions: 144 h; for inhibition at 10 µM: read-out: Growth inhibition (%) 10 μM; for inhibition at 1 µM: read-out: Growth inhibition (%) 1 μM; for pIC50: PANC-1, MTS method, cell survival 6 days after exposure, 4-parameter logistic fit; for inhibition at 0.15625 µM: read-out: Growth inhibition (%) 0.15625 μM; for inhibition at 0.3125 µM: read-out: Growth inhibition (%) 0.3125 μM; for inhibition at 30 µM: read-out: Growth inhibition (%) 30 μM
Outline: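 PANC-1 cells in D-MEM + 10% FBS at 37 °C, 5% CO2 exposed to 2-fold serial DMSO dilutions of compound for 6 days. Survival read by MTS (492 minus 630 nm, blank-corrected) relative to DMSO control as 100%; mean of 3 runs, 4-parameter logistic fit.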

SMILES	inhibition at 10 µM (PANC-1, MTS, 6 days) [%]	pIC50	also measured
CC(C)C[C@H]1ON(C(=O)/C=C/c2csc(N3CCOCC3)n2)[C@H]2CN(C3CCN(C)CC3)C(=O)[C@H](CC(C)C)N2C1=O [ID-56, (3R,6S,9aS)-3,6-diisobutyl-8-(1-methylpiperidin-4-yl)-1-((E)-3-(2-morpholinothiazol-4-yl)acryloyl)tetrahydropyrazino[2,1-c][1,2,4]oxadiazine-4,7 (3H, 6H)-dione]	95.3	–	–
CC(C)(C)C[C@H]1C(=O)N(CC2CCNCC2)C[C@@H]2N(C(=O)/C=C/c3cnc4ccccc4n3)O[C@H](CC3CCCCC3)C(=O)N21 [ID-26, (3R,6S,9aS)-3-(cyclohexylmethyl)-6-neopentyl-8-(piperidin-4-ylmethyl)-1-((E)-3-(quinoxalin-2-yl)acryloyl)tetrahydropyrazino[2,1-c][1,2,4]oxadiazine-4,7(3H,6H)-dione]	–	–	inhibition at 0.625 µM (PANC-1, MTS, 6 days, 0.625 μM, read-out: Growth inhibition (%) 0.625 μM): 4.2%; inhibition at 1 µM (PANC-1, MTS, 6 days): 96.1%
CC(C)C[C@H]1ON(C(=O)/C=C/c2nnc(C3CC3)s2)[C@H]2CN(CCC(N)=O)C(=O)[C@H](CC(C)C)N2C1=O [ID-29, 3-((3R,6S,9aS)-1-((E)-3-(5-cyclopropyl-1,3,4-thiadiazol-2-yl)acryloyl)-3,6-diisobutyl-4,7-dioxohexahydropyrazino[2,1-c][1,2,4]oxadiazin-8(1H)-yl)propanamide]	101	5.64	–
COc1ccc(/C=C/C(=O)N2O[C@H](CC(C)C)C(=O)N3[C@@H]2CN(C2CCN(C)CC2)C(=O)[C@@H]3CC(C)C)nc1 [ID-72, (3R,6S,9aS)-3,6-diisobutyl-1-((E)-3-(5-methoxypyridin-2-yl)acryloyl)-8-(1-methylpiperidin-4-yl)tetrahydropyrazino[2,1-c][1,2,4]oxadiazine-4,7(3H,6H)-dione]	–	–	inhibition at 2.5 µM (PANC-1, MTS, 6 days, 2.5 μM, read-out: Growth inhibition (%) 2.5 μM): 37%
CC(C)C[C@H]1ON(C(=O)/C=C/c2cccc(=O)[nH]2)[C@H]2CN(C3CCN(C)CC3)C(=O)[C@H](CC(C)C)N2C1=O [ID-51, (3R,6S,9aS)-3,6-diisobutyl-8-(1-methylpiperidin-4-yl)-1-((E)-3-(6-oxo-1,6-dihydropyridin-2-yl)acryloyl)tetrahydropyrazino[2,1-c][1,2,4]oxadiazine-4,7(3H,6H)-dione]	47.5	–	–
CC(C)C[C@H]1ON(C(=O)/C=C/c2nc(C#CCCCCO)cs2)[C@H]2CN([C@@H]3CCN(CCCCO)C3)C(=O)[C@H](CC(C)(C)C)N2C1=O [ID-11, (3R,6S,9aS)-8-((R)-1-(4-hydroxybutyl)pyrrolidin-3-yl)-1-((E)-3-(4-(6-hydroxyhex-1-yn-1-yl)thiazol-2-yl)acryloyl)-3-isobutyl-6-neopentyltetrahydropyrazino[2,1-c][1,2,4]oxadiazine-4,7(3H,6H)-dione]	–	6.85	–
CNC(=O)CCCC#Cc1csc(/C=C/C(=O)N2O[C@H](CC(C)C)C(=O)N3[C@@H]2CN([C@H]2CCN(CCCCO)C2)C(=O)[C@@H]3CC(C)(C)C)n1 [ID-93, 6-(2-((E)-3-((3R, 6S, 9aS)-8-((S)-1-(4-hydroxybutyl)pyrrolidin-3-yl)-3-isobutyl-6-neopentyl-4,7-dioxohexahydropyrazino[2,1-c][1,2,4]oxadiazin-1(6H)-yl)-3-oxoprop-1-en-1-yl)thiazol-4-yl)—N-methylhex-5-ynamide]	–	–	inhibition at 0.15625 µM (PANC-1, MTS, 6 days): 37.4%
CC(C)C[C@H]1ON(C(=O)/C=C/c2nc3c(O)cccc3s2)[C@H]2CN([C@H]3CCN(CCCCO)C3)C(=O)[C@H](CC(C)(C)C)N2C1=O [ID-85, (3R,6S,9aS)-1-((E)-3-(4-hydroxybenzo[d]thiazol-2-yl)acryloyl)-8-((S)-1-(4-hydroxybutyl)pyrrolidin-3-yl)-3-isobutyl-6-neopentyltetrahydropyrazino[2,1-c][1,2,4]oxadiazine-4,7(3H,6H)-dione]	–	6.96	inhibition at 0.15625 µM (PANC-1, MTS, 6 days): 58.9%
C#Cc1csc(/C=C/C(=O)N2O[C@H](CC(C)C)C(=O)N3[C@@H]2CN([C@H]2CCN(CCCCO)C2)C(=O)[C@@H]3CC(C)(C)C)n1 [ID-81, (3R,6S,9aS)-1-((E)-3-(4-ethynylthiazol-2-yl)acryloyl)-8-((S)-1-(4-hydroxybutyl)pyrrolidin-3-yl)-3-isobutyl-6-neopentyltetrahydropyrazino[2,1-c][1,2,4]oxadiazine-4,7(3H,6H)-dione]	–	–	inhibition at 0.3125 µM (PANC-1, MTS, 6 days): 69.6%
CC(C)C[C@H]1ON(C(=O)/C=C/c2nc3ccccc3s2)[C@H]2CN(C3CCN(CCCC(=O)O)CC3)C(=O)[C@H](CC(C)(C)C)N2C1=O [ID-76, 4-(4-((3R,6S,9aS)-1-((E)-3-(benzo[d]thiazol-2-yl)acryloyl)-3-isobutyl-6-neopentyl-4,7-dioxohexahydropyrazino[2,1-c][1,2,4]oxadiazin-8 (1H)-yl)piperidin-1-yl)butanoic acid]	–	5.80	–
CC(C)C[C@H]1ON(C(=O)/C=C/c2ccccc2)[C@H]2CN(C3CCN(C)CC3)C(=O)[C@H](CC(C)C)N2C1=O [ID-39, (3R,6S,9aS)-1-cinnamoyl-3,6-diisobutyl-8-(1-methylpiperidin-4-yl)tetrahydropyrazino[2,1-c][1,2,4]oxadiazine-4,7 (3H, 6H)-dione]	80.8	5.05	–
CC(C)C[C@H]1ON(C(=O)/C=C/c2nc3ccccc3s2)[C@H]2CN(CCC(N)=O)C(=O)[C@H](CC(C)C)N2C1=O [ID-23, 3-((3R,6S,9aS)-1-((E)-3-(benzo[d]thiazol-2-yl)acryloyl)-3,6-diisobutyl-4,7-dioxohexahydropyrazino[2,1-c][1,2,4]oxadiazin-8(1H)-yl)propanamide]	–	6.11	inhibition at 30 µM (PANC-1, MTS, 6 days): 102%
CC(C)C[C@H]1C(=O)N(C2CCN(C)CC2)C[C@@H]2N(C(=O)/C=C/c3nc4ccccc4s3)c3ccccc3C(=O)N21 [ID-58, (4S,11aS)-11-((E)-3-(benzo[d]thiazol-2-yl)acryloyl)-4-isobutyl-2-(1-methylpiperidin-4-yl)-1,2,11,11a-tetrahydro-6H-pyrazino[2,1-b]quinazoline-3,6(4H)-dione]	–	6.25	inhibition at 1 µM (PANC-1, MTS, 6 days): 78.4%
CC(C)C[C@H]1ON(C(=O)/C=C/c2cc3n(n2)CCOC3)[C@H]2CN(C3CCN(C)CC3)C(=O)[C@H](CC(C)C)N2C1=O [ID-49, (3R,6S,9aS)-1-((E)-3-(6,7-dihydro-4H-pyrazolo[5,1-c][1,4]oxazin-2-yl)acryloyl)-3,6-diisobutyl-8-(1-methylpiperidin-4-yl)tetrahydropyrazino[2,1-c][1,2,4]oxadiazine-4,7 (3H, 6H)-dione]	74.9	–	–
CC(C)C[C@H]1ON(C(=O)/C=C/c2nc(C#CCCCCO)cs2)[C@H]2CN(C3CN(CCCCO)C3)C(=O)[C@H](CC(C)(C)C)N2C1=O [ID-92, (3R,6S,9aS)-8-(1-(4-hydroxybutyl)azetidin-3-yl)-1-((E)-3-(4-(6-hydroxyhex-1-yn-1-yl)thiazol-2-yl)acryloyl)-3-isobutyl-6-neopentyltetrahydropyrazino[2,1-c][1,2,4]oxadiazine-4,7(3H,6H)-dione]	–	6.92	–
CC(C)C[C@H]1ON(C(=O)/C=C/c2ncc(Cl)cn2)[C@H]2CN(C3CCN(C)CC3)C(=O)[C@H](CC(C)C)N2C1=O [ID-55, (3R,6S,9aS)-1-((E)-3-(5-chloropyrimidin-2-yl)acryloyl)-3,6-diisobutyl-8-(1-methylpiperidin-4-yl)tetrahydropyrazino[2,1-c][1,2,4]oxadiazine-4,7(3H,6H)-dione]	99.8	6.34	–
CC(C)(C)C[C@H]1C(=O)N([C@@H]2CCN(CCCCO)C2)C[C@@H]2N(C(=O)/C=C/c3cnc4ccccc4n3)O[C@H](CCCCNC(=O)OCc3ccccc3)C(=O)N21 [ID-105, benzyl (4-((3R,6S,9aS)-8-((R)-1-(4-hydroxybutyl)pyrrolidin-3-yl)-6-neopentyl-4,7-dioxo-1-((E)-3-(quinoxalin-2-yl)acryloyl)octahydropyrazino[2,1-c][1,2,4]oxadiazin-3-yl)butyl)carbamate]	–	–	inhibition at 30 µM (PANC-1, MTS, 6 days): 98.3%
CC(C)C[C@H]1CN(C(=O)/C=C/c2nc3ccccc3s2)[C@H]2CN([C@@H]3CCN(CCCCO)C3)C(=O)[C@H](CC(C)(C)C)N2C1=O [ID-96, (3S,6S,9aR)-1-((E)-3-(benzo[d]thiazol-2-yl)acryloyl)-8-((R)-1-(4-hydroxybutyl)pyrrolidin-3-yl)-3-isobutyl-6-neopentylhexahydro-4H-pyrazino[1,2-a]pyrimidine-4,7(6H)-dione]	101	–	inhibition at 0.3125 µM (PANC-1, MTS, 6 days): -1.7%
CC(C)C[C@H]1ON(C(=O)/C=C/c2nc3cc(O)ccc3s2)[C@H]2CN(C3CN(CCCCO)C3)C(=O)[C@H](CC(C)(C)C)N2C1=O [ID-8, (3R,6S,9aS)-1-((E)-3-(5-hydroxybenzo[d]thiazol-2-yl)acryloyl)-8-(1-(4-hydroxybutyl)azetidin-3-yl)-3-isobutyl-6-neopentyltetrahydropyrazino[2,1-c][1,2,4]oxadiazine-4,7(3H,6H)-dione]	–	7.20	–
CC(C)C[C@H]1ON(C(=O)/C(Cl)=C/c2ccccn2)[C@H]2CN(C3CCN(C)CC3)C(=O)[C@H](CC(C)C)N2C1=O [ID-47, (3R,6S,9aS)-1-((Z)-2-chloro-3-(pyridin-2-yl)acryloyl)-3,6-diisobutyl-8-(1-methylpiperidin-4-yl)tetrahydropyrazino[2,1-c][1,2,4]oxadiazine-4,7(3H,6H)-dione]	66.6	5.00	–
CC(C)C[C@H]1ON(C(=O)/C=C/c2nc3ccccc3s2)[C@H]2CN([C@H]3CCN(CCCCO)C3)C(=O)[C@H](CC(C)(C)C)N2C1=O [ID-5, (3R,6S,9aS)-1-((E)-3-(benzo[d]thiazol-2-yl)acryloyl)-8-((S)-1-(4-hydroxybutyl)pyrrolidin-3-yl)-3-isobutyl-6-neopentyltetrahydropyrazino[2,1-c][1,2,4]oxadiazine-4,7(3H,6H)-dione]	–	6.74	–

Reference: patent US20230265104A1, “NOVEL HETEROCYCLIC COMPOUNDS” (PRISM BIOLAB CO., LTD., priority 2020, published 2023)
